Experiment: gradient 5% acetonitrile 3 min, to 50% in 2 min, to 85% in 15 min, held 3 min, 100 µL/min
Conditions: column: Zorbax Extend-C18 2.1 x 50 mm; eluents: water / acetonitrile, 0.1% formic acid
Method in brief: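 Pure standards were run in mixtures of ~100 molecules by HPLC coupled to a quadrupole time-of-flight mass spectrometer. The column was a Zorbax Extend-C18 (2.1 × 50 mm, 1.8 μm) at 100 μL/min, with water and acetonitrile each containing 0.1% formic acid, in positive and negative ionization mode. Dead and dwell volumes were 40 μL and 900 μL. Retention time was taken from computationally picked adduct peaks, each manually inspected, with data collected over 3 months.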

SMILES	RP-LC retention time
CCC(=O)N1CCc2cc(-c3ccc(C(=O)NCCCN4CCCC4=O)cc3)ccc21	712 s
CCOC(=O)c1ccccc1NC(=O)Cn1cnc2nc(N3CCCC(C(=O)NC)C3)sc2c1=O (configuration not stated)	640 s
O=C(CSc1ncccc1-c1noc(C2CCC2)n1)N1CCCCC1	979 s
Cn1c(=O)n(C)c2cc(CNCCc3ccc(Cl)cc3Cl)ccc21	653 s
COc1ccc(Br)c2c1-c1nc(NC(=O)c3cccc(C)c3)sc1C2	1140 s
Cn1cnc(S(=O)(=O)N2CCC(C(=O)Nc3cccc(C#N)c3)CC2)c1	674 s
COc1ccc(CNC(=O)c2c(C)sc3ccn(C)c(=O)c23)cc1OC	674 s
Cc1cccc(OCC(=O)N2CCN(c3cc(=O)n(C(C)C)c(=O)n3C(C)C)CC2)c1	909 s
CCCCOc1ccc(-c2cc3c4nn(CC(=O)NC(C)C)c(=O)n4ccn3n2)cc1	954 s
Cc1nc(-c2cccc(NC(=O)c3ncccn3)c2)cs1	665 s
CCC1Oc2ccc(S(=O)(=O)N3CCC(C(=O)NC4CC4)CC3)cc2NC1=O (configuration not stated)	688 s
COc1ccc(NC(=O)c2cnc(N3CCN(C(C)=O)CC3)nc2N)cc1	601 s
COc1ccc(NC(=O)N2CCc3nc(-c4ccccc4)sc3C2)cc1OC	820 s
CCCN(C)c1nccn2c(=O)n(CC(=O)Nc3ccc(C)c(Cl)c3)nc12	765 s
CCCCNC(=O)C1Cc2cc(S(=O)(=O)N3CCCCC3)ccc2N1C(=O)CC (configuration not stated)	885 s
CCOCCCNCc1ccc(-c2ccccc2)o1	649 s
Cc1cc(NC(=O)CN2C(=O)C3CCCCN3c3ccc(C(=O)N4CCCC4)cc32)no1 (configuration not stated)	738 s
Cc1ccc(NC(=O)c2cn3c(n2)CCCC3)cc1	606 s
CC(=O)N1CCN(c2nc3c(s2)CC(C(=O)Nc2ccccc2)CC3)CC1 (configuration not stated)	541 s
O=C(c1cn2cc(Cl)ccc2n1)N1CCN(c2ccc(Cl)cc2)CC1	899 s
O=C1CC(c2ccc(O)cc2)c2c(c(C(=O)O)cn2-c2cccc(C(F)(F)F)c2)N1 (configuration not stated)	746 s
CCOC(=O)CN1C(=O)CC(C[C@@H](O)C2C[C@@H](C)C[C@H](C)C2=O)CC1=O (some centres not stated)	821 s

SMILES	RP-LC retention time
O=C(Cn1ccn2nc(-c3ccc(F)cc3)c(CO)c2c1=O)Nc1cc(F)ccc1Cl	894 s
COC(=O)c1c(NCc2ccccc2F)c2cccc(Cl)c2[nH]c1=O	808 s
O=C(C1CCC1)N1CC(N(Cc2ccncc2)CC2CC2)C1	590 s
O=C1CCc2cc(NC(=O)c3cccc(C(F)(F)F)c3)ccc2N1	717 s
COc1ccc(Cl)c2c(=O)c3c([nH]c12)CCN(CC(=O)NCc1ccc(Cl)cc1)C3	762 s
O=C(CN1C(=O)C(C(=O)N2CCCC2)Sc2ccccc21)Nc1cccc(F)c1 (configuration not stated)	1020 s
C[C@@H]1O[C@@H](OC2O[C@@H](COc3cc(O)c4c(=O)cc(-c5ccc(O)cc5)oc4c3)[C@@H](O)[C@@H](O)[C@@H]2O)[C@H](O)[C@H](O)[C@H]1O (some centres not stated)	671 s
COc1ccc(CNC(=O)C2CCN(S(C)(=O)=O)c3cc(C)ccc3O2)cc1 (configuration not stated)	830 s
COCCNC(=O)CCCn1c(=O)c2cccn2c2ccccc21	680 s
CCOc1ccccc1C(=O)NC(c1ccccc1)c1nnc(N2CCCC2)o1 (configuration not stated)	896 s
CCCCN(CCCC)C(=O)CN1C[C@H](c2ccc3c(c2)OCO3)[C@@H](C(=O)O)[C@@H]1c1ccc(OC)cc1	974 s
Cc1ccc(CNC(=O)C2CCN(CCc3cn(C)c4ncccc34)CC2)cc1	615 s
CCc1ccc(NC(=O)C(=O)NCC(c2ccc3c(c2)OCO3)N2CCOCC2)cc1 (configuration not stated)	613 s
COCCSc1nnc(NC(=O)C2CCN(C(=O)c3ccccc3Cl)CC2)s1	743 s
Cc1ccc2nc(C(=O)NCc3ccccc3C)cn2c1	686 s
CCN1C(=O)C(C)(C(=O)NCc2ccc(OC)cc2)Oc2cccnc21 (configuration not stated)	803 s
CCCCOc1ccc(NC(=O)c2oc3cc(C)c(Cl)cc3c2C)c2cccnc12	1030 s
Cc1cc(Nc2nc(C(=O)N3CCN(c4ccccn4)CC3)cc3occc23)ccc1Br	754 s
O=C(NCc1ccc2c(c1)OCO2)c1n[nH]nc1Nc1ccc(F)cc1	872 s
CC(=O)c1sc(NC(=O)c2ccn(C)n2)nc1C	630 s
Cc1ccc(C(=O)N2CCC(CC(=O)NCCc3c[nH]c4ccc(Cl)cc34)CC2)cc1	828 s
CC(C)Oc1ccc(-c2noc(CN3C(=O)COc4cc(Cl)ccc43)n2)cc1	1190 s

SMILES	RP-LC retention time
CCc1ccc(S(=O)(=O)c2cnc(N3CCN(c4ccc(OC)cc4)CC3)nc2N)cc1	996 s
C[C@]12CC[C@H]3[C@@H](C[C@H](F)C4=CC(=O)CC[C@@]43C)[C@@H]1CC[C@@H]2O	798 s
Cc1cccc(NC(=O)Nc2nccn(-c3ccc(C(C)C)cc3)c2=O)c1	1190 s
CCC(=O)N1CCN(Cc2nc3cc(NC(=O)C(C)C)ccc3n2C)CC1	584 s
Cc1ccc(C)c(N2CCN(c3ccnc(SCC(=O)NCc4ccc(Cl)cc4)n3)CC2)c1	942 s
CCN(CC)C(=O)Cn1c(Cc2ccc(Cl)cc2)nc2ccccc21	693 s
Cc1ccc(NC(=O)c2cc(C(C)C)n(C3CCS(=O)(=O)C3)n2)cc1C (configuration not stated)	949 s
CCCn1c(CCNC(=O)c2ccc(F)cc2F)nc2cccnc21	675 s
O=C(c1cnn(-c2ccccc2)n1)N1CCCC(COCc2ccccc2)C1 (configuration not stated)	1110 s
Cc1ccc(NC(=O)C2CCCN(c3nc4c(s3)c(C)nn4-c3ccccc3)C2)c(C)c1 (configuration not stated)	1200 s
O=C(NCCN1CCCCC1)c1cn2cc(Cl)ccc2n1	579 s
CC(C)c1nnc2ccc(N3CCCC3)nn12	819 s
COc1cc(=O)n2c(c1C(=O)Nc1ccc(N(C)C)cc1)CCCC2	567 s
Cn1nccc1-c1cccc(-c2noc(-c3ccc(Br)o3)n2)c1	1090 s
O=C(c1ccco1)N1CCN(c2ccc(=O)n(-c3ccc(Cl)cc3)n2)CC1	768 s
Cc1ccc2c(=O)c3c([nH]c2c1C)CCN(CC(=O)Nc1cccc(Cl)c1)C3	640 s
CCOc1cccc(C2c3[nH]c4ccccc4c3CCN2C(=O)C2CC2)c1 (configuration not stated)	1100 s
O=C(NCc1cccs1)c1ccc(-n2cccn2)nn1	737 s
Cc1ccc(S(=O)(=O)N(C)C)cc1-c1nnc(-c2ccc(F)cc2)o1	976 s
CN(C)c1cccc(C(=O)N2CCN(c3cc(-c4ccc(Cl)cc4)[nH]n3)CC2)c1	820 s
COc1ccc(C(=O)NCc2nnc(SCC(=O)N3CCCc4ccccc43)o2)cc1	677 s
Cn1nc(C(=O)N2CCCC2)c2c1CCN(C(=O)CCC(=O)NCCc1c[nH]c3ccccc13)C2	685 s

SMILES	RP-LC retention time
O=[N+]([O-])c1ccccc1S(=O)(=O)Nc1cccc(-c2ccc(N3CCOCC3)nn2)c1	646 s
CCc1noc(-c2ccnc(-n3cnc(C(=O)NCC4CC4)c3)c2)n1	801 s
CC(=O)N1CCc2cc(N3CC(C(=O)NCc4ccc(F)cc4Cl)CC3=O)ccc21 (configuration not stated)	713 s
Cc1cc(C)cc(NS(=O)(=O)c2cc3n(c2)CCN(C(C)C)C3=O)c1	808 s
O=C(c1ccc2[nH]ccc2c1)N1CCCN(C2CCN(CC3CC3)C2=O)CC1 (configuration not stated)	888 s
Cc1cccc(-c2nnc(CC(=O)NCCC(C)C)o2)c1	828 s
O=C(Cn1c(=O)ccc2cc(S(=O)(=O)N3CCCC3)ccc21)N1CCN(c2ncccn2)CC1	708 s
Cc1ccccc1N1CCn2c1nc1c2c(=O)n(CC(=O)O)c(=O)n1C	664 s
COCCCNC(=O)C1(c2ccc(NC(=O)c3ccc(Br)cc3)cc2)CCC1	820 s
O=C(CCC(=O)N1CCCC1c1nc2ccccc2s1)N1CCN(c2ccccc2)CC1 (configuration not stated)	812 s
c1coc(-c2nc3ccccc3c3nnc(SCc4cn5ccccc5n4)n23)c1	867 s
O=C(O)c1ccc(S(=O)(=O)NCc2ccccn2)cc1	543 s
Cc1ccc(C)c(CNC(=O)Cn2cnc3onc(C)c3c2=O)c1	764 s
COc1cccc(-c2noc(C3CC(=O)N(c4cccc(Cl)c4)C3)n2)c1OC (configuration not stated)	936 s
CCc1nc(-c2csc(S(=O)(=O)N3CCC(C(=O)NCc4ccc(C)cc4)CC3)c2)no1	662 s
CCOCC(=O)N1CCC2(CCC2O)CC1 (configuration not stated)	598 s
COc1ccc(-n2nc(C)c3sc(N4CCCC(C(=O)NCC5CCCO5)C4)nc32)cc1 (configuration not stated)	895 s
CCOC(=O)CC1(NC(=O)N2CCCn3nc(-c4cccnc4)cc3C2)CCCCC1	643 s
CCN(CC)CCCNc1ncnc2c1cnn2-c1ccc(C)c(C)c1	663 s
Cc1ccc(-c2noc(CN3N=NC4C(=O)N(c5cccc(F)c5)C(=O)C43)n2)cc1C (configuration not stated)	897 s
COc1cccc(S(=O)(=O)N2CCC(c3noc(-c4ccccc4C)n3)CC2)c1	1140 s
